Measured values reported in paper PMC5424428, “Characteristics of L-citrulline transport through blood-brain barrier in the brain capillary endothelial cell line (TR-BBB cells)” (Journal of Biomedical Science, 2017).
Values joined by “and” are separate entries in the source; they are usually repeats but may differ in a detail not shown here. Equal entries are not always repeated. “Also recorded” adds a separate entry of the source. Where two headings read alike, the source gives them in different places.

Legend:
TR-BBB cells [1] = assay: Inhibition of [14C]L-citrulline uptake in TR-BBB cells by unlabeled amino acids, transporter inhibitors and drugs; format: cell-based, rat; conditions: for activity at 2000 µM / activity at 20000 µM / IC50: Rattus norvegicus; for activity at 2000 µM / activity at 20000 µM / Ki / IC50 / Uptake of [14C]L-citrulline (% of control): 5 min; for Effect on [14C]L-citrulline uptake: unlabeled compound present; for Decrease of [14C]L-citrulline uptake: discussion of Table 3; for Mode of inhibition of [14C]L-citrulline uptake / Ki: Lineweaver-Burk plot; for Ki: 300 μM inhibitor
Experimental: (§1) The TR-BBB cells established from transgenic rats harboring the temperature-sensitive simian virus 40 large T-antigen, an in vitro BBB model, were cultured at 33 °C as described previously (21). TR-BBB cells were received from Professor Tetsuya Terasaki (Tohoku University, Japan) and were cultured with Dulbecco’s modified Eagle’s medium (Invitrogen, San Diego, CA), supplemented with 10% fetal bovine serum, 100 U/mL penicillin, 100 μg/mL streptomycin (Invitrogen, San Diego, CA) and 15 μg/L endothelial cell growth factor (Roche, Mannheim, Germany) at 33 °C in a humidified atmosphere of 5% CO2/air. On rat tail collagen type I-coated 24 well culture plates (IWAKI, Tokyo, Japan) initial seeding was carried out at 1 × 10^5 cells/well for the uptake study. After incubation for 2 days at 33 °C, the cultures became confluent and then they were used in the transport study. L-Citrulline free medium was used all experiments except for experiments on saturation kinetics of [^14C]L-citrulline uptake (Fig. 2), Lineweaver-Burk plots for [^14C]L-citrulline uptake (Fig. 4), or inhibitory effect of L-amino acids as a control (Table 2).
(§2) The [^14C] L-citrulline uptake study was performed according to the previous report. Briefly, extracellular fluid (ECF) buffer containing [^14C]L-citrulline (44.4 μM) in the presence or absence of unlabeled inhibitors was added to the TR-BBB cells and then incubated at pH 7.4 and 37 °C for the designated time (5 min). Uptake was terminated by the addition of ice-cold ECF buffer. A Na^+ free transport medium was prepared by using LiCl, choline chloride, sodium gluconate and KHCO3 instead of NaCl and NaHCO3, respectively. The cells were then solubilized by incubation overnight in 750 μL of 1 N NaOH at room temperature, and the measurement of radioactivity was performed in a liquid scintillation counter (LS6500; Beckman, Fullerton, CA). Cell to medium ratio (μL/mg protein) was calculated as follows: the radioactivity (dpm/μL) in the sample per milligram cell protein (dpm/mg protein).
To analyze the competitive nature of L-dopa and gabapentin for [^14C]L-citrulline uptake, Lineweaver-Burk plots were generated. The inhibitory constant (K i) was calculated from Eq. (2):2 V=Vmax⋅C/Km⋅1+I/Ki+C where I corresponds to the concentration of L-dopa or gabapentin, respectively.

TR-BBB cells [2] = assay: [14C]L-citrulline uptake study in TR-BBB cells (time course, ion dependence, saturation kinetics); format: in vitro ADME, rat; conditions: for Uptake of [14C]L-citrulline (% of control): ion dependence: Na+ and/or Cl- replaced in the uptake buffer by the named salt, mean ± S.E.M.
Experimental: as §1, §2
For kinetic studies, the Michaelis-Menten constant (K m) and the maximum uptake rate (V max) of [^14C] L-citrulline were estimated from Eq. (1):1 V=Vmax⋅C/Km+C
Where V and C are the initial uptake rate of [^14C] L-citrulline at 5 min and the concentration of L-citrulline, and V max is the maximum uptake rate for the saturable component.

[3] = Table 4, drug 2 mM, pH 7.4, 37 °C, mean ± S.E.M., read-out: Uptake of [14C]L-citrulline (% of control)
[4] = pH 7.4, read-out: IC50 for inhibition of [14C]L-citrulline uptake
[5] = Table 4, drug 0.5 mM, pH 7.4, 37 °C, mean ± S.E.M.
[6] = Table 3, transporter inhibitor 2 mM, pH 7.4, 37 °C, mean ± S.E.M.
[7] = Table 2, L-amino acid 2 mM, pH 7.4, 37 °C, mean ± S.E.M.
[8] = pH 7.4, read-out: Uptake of [14C]L-citrulline (% of control), Table 2, L-amino acid 2 mM, pH 7.4, 37 °C, mean ± S.E.M.
[9] = Table 2, L-amino acid 2 mM, pH 7.4, 37 °C, mean ± S.E.M., read-out: Uptake of [14C]L-citrulline (% of control)
[10] = TR-BBB cells, pH 7.4, 37 °C, read-out: IC50 for inhibition of [14C]L-citrulline uptake
[11] = Table 2, L-amino acid 20 mM, pH 7.4, 37 °C, mean ± S.E.M.

## NC1(C(=O)O)CC2CCC1C2 (centres unmarked) [BCH, 2-aminobicyclo-(2,2,1)-heptane-2-carboxylic acid]
TR-BBB cells [1]; Table 3, transporter inhibitor 2 mM, pH 7.4, 37 °C, mean ± S.E.M., read-out: Uptake of [14C]L-citrulline (% of control)
  activity at 2000 µM: 25.3 ± 4.4%
TR-BBB cells [1]; Table 3, transporter inhibitor 20 mM, pH 7.4, 37 °C, mean ± S.E.M., read-out: Uptake of [14C]L-citrulline (% of control)
  activity at 20000 µM: 28.1 ± 11.6%
TR-BBB cells [1]; TR-BBB cells
  Effect on [14C]L-citrulline uptake: markedly inhibited
TR-BBB cells [1]
  Decrease of [14C]L-citrulline uptake: about 75%

## C[N+](C)(C)CCO.[Cl-] [Choline Chloride, choline chloride]
TR-BBB cells [2]; pH 7.4, 37 °C, 5 min
  Uptake of [14C]L-citrulline (% of control): 83.3 ± 5.7 % of control

## NCCc1ccc(O)c(O)c1 [Dopamine]
TR-BBB cells [1]; [3]
  activity at 2000 µM: 110 ± 2.7%
TR-BBB cells [1]; TR-BBB cells
  Effect on [14C]L-citrulline uptake: no effect; also recorded: no significant effects

## NCC1(CC(=O)O)CCCCC1 [Gabapentin]
TR-BBB cells [1]
  Mode of inhibition of [14C]L-citrulline uptake: competitively inhibited
TR-BBB cells [1]; pH 7.4, 37 °C
  Ki: 679 µM
TR-BBB cells [1]; [4]
  IC50: 223 µM
TR-BBB cells [1]; TR-BBB cells
  Effect on [14C]L-citrulline uptake: strongly inhibited; also recorded: significantly inhibited
TR-BBB cells [1]; [5]
  Uptake of [14C]L-citrulline (% of control): 45.0 ± 2.52 % of control
TR-BBB cells [1]; Table 4, drug 5 mM, pH 7.4, 37 °C, mean ± S.E.M.
  Uptake of [14C]L-citrulline (% of control): 29.6 ± 2.73 % of control

## COc1ccc2c3c([nH]c2c1)C(C)=NCC3 [Harmaline]
TR-BBB cells [1]
  Decrease of [14C]L-citrulline uptake: about 40%

## NC(N)=NCCCC[C@H](N)C(=O)O [Homoarginine]
TR-BBB cells [1]; TR-BBB cells
  Effect on [14C]L-citrulline uptake: no inhibition effect
TR-BBB cells [1]; [6]
  Uptake of [14C]L-citrulline (% of control): 95.98 ± 13.8 % of control

## C[C@H](N)C(=O)O [L-Alanine]
TR-BBB cells [1]; TR-BBB cells
  Effect on [14C]L-citrulline uptake: significantly inhibited
TR-BBB cells [1]; [7]
  Uptake of [14C]L-citrulline (% of control): 73.0 ± 6.4 % of control

## N=C(N)NCCC[C@H](N)C(=O)O [L-Arginine]
TR-BBB cells [1]; [4]
  IC50: 33400 µM
TR-BBB cells [1]; [8]
  activity at 2000 µM: 59.9 ± 6.6%
TR-BBB cells [1]; pH 7.4, read-out: Uptake of [14C]L-citrulline (% of control), Table 2, L-amino acid 20 mM, pH 7.4, 37 °C, mean ± S.E.M.
  activity at 20000 µM: 53.2 ± 4.4%
TR-BBB cells [1]; TR-BBB cells
  Effect on [14C]L-citrulline uptake: significantly inhibited

## N[C@@H](CC(=O)O)C(=O)O [L-Aspatate, L-aspartate]
TR-BBB cells [1]; TR-BBB cells
  Effect on [14C]L-citrulline uptake: did not inhibit
TR-BBB cells [1]; [7]
  Uptake of [14C]L-citrulline (% of control): 101.5 ± 8.6 % of control

## NC(=O)NCCC[C@H](N)C(=O)O [L-Citrulline]
TR-BBB cells [2]; 44.4 μM, 37 °C, ECF buffer
  Time-course of [14C]L-citrulline uptake: linear for 5 min
TR-BBB cells [2]; absence of Na+ or Cl- in the uptake buffer
  Ion dependence of [14C]L-citrulline uptake: no significant difference
TR-BBB cells [2]; first (Km1) of two saturable components, 0–5 mM unlabeled L-citrulline, 5 min, pH 7.4, 37 °C
  Michaelis-Menten constant Km1 of [14C]L-citrulline uptake: 30.9 ± 1.0 µM and 30.9 µM
TR-BBB cells [2]; first saturable component, 5 min, pH 7.4, 37 °C
  Vmax1 of [14C]L-citrulline uptake: 185 nmol/mg/min
TR-BBB cells [2]; second (Km2) of two saturable components, 0–5 mM unlabeled L-citrulline, 5 min, pH 7.4, 37 °C
  Michaelis-Menten constant Km2 of [14C]L-citrulline uptake: 1.69 ± 0.43 mM and 1.69 mM
TR-BBB cells [2]; second saturable component, 5 min, pH 7.4, 37 °C
  Vmax2 of [14C]L-citrulline uptake: 3.19 µmol/mg/min
TR-BBB cells [1]; [8]
  activity at 2000 µM: 36 ± 2.1%

## N[C@@H](CS)C(=O)O [L-Cysteine]
TR-BBB cells [1]; [9]
  activity at 2000 µM: 48.4 ± 2.6%
TR-BBB cells [1]; TR-BBB cells
  Effect on [14C]L-citrulline uptake: significantly inhibited

## N[C@@H](Cc1ccc(O)c(O)c1)C(=O)O [L-Dopa]
TR-BBB cells [1]
  Mode of inhibition of [14C]L-citrulline uptake: competitively inhibited
TR-BBB cells [1]; pH 7.4, 37 °C
  Ki: 486 µM
TR-BBB cells [1]; [10]
  IC50: 501 µM
TR-BBB cells [1]; TR-BBB cells
  Effect on [14C]L-citrulline uptake: strongly inhibited; also recorded: significantly inhibited
TR-BBB cells [1]; [5]
  Uptake of [14C]L-citrulline (% of control): 52.1 ± 6.6 % of control
TR-BBB cells [1]; Table 4, drug 2 mM, pH 7.4, 37 °C, mean ± S.E.M.
  Uptake of [14C]L-citrulline (% of control): 21.6 ± 2.8 % of control

## N[C@@H](CCC(=O)O)C(=O)O [L-Glutamate]
TR-BBB cells [1]; pH 7.4, read-out: Uptake of [14C]L-citrulline (% of control)
  activity at 2000 µM: 103 ± 7.8%
TR-BBB cells [1]; TR-BBB cells
  Effect on [14C]L-citrulline uptake: did not inhibit

## NC(=O)CC[C@H](N)C(=O)O [L-Glutamine]
TR-BBB cells [1]; [9]
  activity at 2000 µM: 37.5 ± 1.3%

## CC(C)C[C@H](N)C(=O)O [L-Leucine]
TR-BBB cells [1]; [7]
  Uptake of [14C]L-citrulline (% of control): 49.4 ± 5.8 % of control
TR-BBB cells [1]; [11]
  Uptake of [14C]L-citrulline (% of control): 17.2 ± 3.9 % of control

## NCCCC[C@H](N)C(=O)O [L-Lysine]
TR-BBB cells [1]; TR-BBB cells
  Effect on [14C]L-citrulline uptake: significantly inhibited
TR-BBB cells [1]; [7]
  Uptake of [14C]L-citrulline (% of control): 74.5 ± 9.0 % of control
TR-BBB cells [1]; [11]
  Uptake of [14C]L-citrulline (% of control): 66.78 ± 2.1 % of control

## N[C@@H](Cc1ccccc1)C(=O)O [L-Phenylalanine]
TR-BBB cells [1]; [10]
  IC50: 68.9 µM
TR-BBB cells [1]; TR-BBB cells
  Effect on [14C]L-citrulline uptake: strongly inhibited
TR-BBB cells [1]; [7]
  Uptake of [14C]L-citrulline (% of control): 13.7 ± 1.8 % of control
TR-BBB cells [1]; [11]
  Uptake of [14C]L-citrulline (% of control): 13.4 ± 1.4 % of control

## N[C@@H](CO)C(=O)O [L-Serine]
TR-BBB cells [1]; [9]
  activity at 2000 µM: 79.7 ± 2.5%
TR-BBB cells [1]; TR-BBB cells
  Effect on [14C]L-citrulline uptake: significantly inhibited

## CC(C)[C@H](N)C(=O)O [L-Valine]
TR-BBB cells [1]; [7]
  Uptake of [14C]L-citrulline (% of control): 31.5 ± 1.4 % of control

## [Cl-].[Li+] [LiCl]
TR-BBB cells [2]; pH 7.4, 37 °C, 5 min
  Uptake of [14C]L-citrulline (% of control): 116.2 ± 5.2 % of control

## CNC(C)(C)C(=O)O [MeAIB, N-(methylamino) isobutyric acid]
TR-BBB cells [1]; TR-BBB cells
  Effect on [14C]L-citrulline uptake: no inhibition effect
TR-BBB cells [1]; [6]
  Uptake of [14C]L-citrulline (% of control): 99.8 ± 6.3 % of control

## CN1C(=O)C=CC1=O [Methylmaleimide, L-methylmaleimide]
TR-BBB cells [1]; TR-BBB cells
  Effect on [14C]L-citrulline uptake: no inhibition effect
TR-BBB cells [1]; [6]
  Uptake of [14C]L-citrulline (% of control): 103.2 ± 10.1 % of control

## C=C[C@H]1C[N@@]2CC[C@H]1C[C@@H]2[C@@H](O)c1ccnc2ccc(OC)cc12 [Qunidine, Quinidine]
TR-BBB cells [1]; 500 µM
  Uptake of [14C]L-citrulline (% of control): 52.5 ± 3.0 % of control
TR-BBB cells [1]; TR-BBB cells
  Effect on [14C]L-citrulline uptake: significantly inhibited

## O=C([O-])[C@H](O)[C@@H](O)[C@H](O)[C@H](O)CO.[Na+] [Sodium gluconate, sodium gluconate]
TR-BBB cells [2]; pH 7.4, 37 °C, 5 min
  Uptake of [14C]L-citrulline (% of control): 103.9 ± 6.8 % of control

## NCCS(=O)(=O)O [Taurine]
TR-BBB cells [1]; [3]
  activity at 2000 µM: 90.5 ± 4.4%
TR-BBB cells [1]; TR-BBB cells
  Effect on [14C]L-citrulline uptake: no significant effects

## Nc1c2c(nc3ccccc13)CCCC2 [tacrine]
TR-BBB cells [1]; TR-BBB cells
  Effect on [14C]L-citrulline uptake: no significant inhibition effect
